Assay results taken from PubChem BioAssay AID328 (DTP/NCI, 2004).
“And” between values parts separate entries of the source, which are not always exact repeats. Equal values may be shown once. Inconclusive results and toxic doses are left out. How the source made its calls: active means survival T/C of 150% or more; inactive means T/C below 125% in these data.

Test system: BDF1 mice, P388 leukemia ip, median survival T/C
Test: NCI In Vivo Anticancer Drug Screen. Data for tumor model P388 Leukemia (intraperitoneal) in B6D2F1 (BDF1) mice
Details: endpoint: median survival time, higher = longer survival
Method: The antitumor activity of compounds was measured in mice bearing transplantable tumors. Survival or tumor size were measured and the results are expressed as the measurement made in the treated group (T) divided by the measurement made in the vehicle treated control group (C). The tumor model used in this assay is P388 Leukemia (intraperitoneal) in B6D2F1 (BDF1) mice

[1] = dose: 100.0 mg/kg/injection, schedule: Q01DX001 (ip), vehicle: saline with Tween-80
[2] = dose: 100.0 mg/kg/injection, schedule: Q04DX003 (ip), vehicle: saline with Tween-80
[3] = dose: 200.0 mg/kg/injection, schedule: Q04DX003 (ip), vehicle: saline with Tween-80
[4] = dose: 100.0 mg/kg/injection, schedule: Q01DX009 (ip), vehicle: saline with Tween-80
[5] = dose: 12.5 mg/kg/injection, schedule: Q04DX003 (ip), vehicle: saline
[6] = dose: 12.5 mg/kg/injection, schedule: Q01DX009 (ip), vehicle: Klucel (hydroxypropylcellulose) (HPC)
[7] = dose: 25.0 mg/kg/injection, schedule: Q01DX009 (ip), vehicle: Klucel (hydroxypropylcellulose) (HPC)
[8] = dose: 25.0 mg/kg/injection, schedule: Q04DX003 (ip), vehicle: saline
[9] = dose: 50.0 mg/kg/injection, schedule: Q01DX009 (ip), vehicle: Klucel (hydroxypropylcellulose) (HPC)
[10] = dose: 50.0 mg/kg/injection, schedule: Q04DX003 (ip), vehicle: saline

Measured: T/C

CCCCCCCCCCCCCSCCCCCCCCSCCCCCCCCCCCCC
inactive: [1] 95 % of control | dose: 200.0 mg/kg/injection, schedule: Q01DX001 (ip), vehicle: saline with Tween-80 90 % of control | dose: 400.0 mg/kg/injection, schedule: Q01DX001 (ip), vehicle: saline with Tween-80 100 % of control

CCOC(=O)C(C#N)N=Nc1ccccc1 (stereo not given)
inactive: [2] 90 % of control | [3] 95 % of control | dose: 400.0 mg/kg/injection, schedule: Q04DX003 (ip), vehicle: saline with Tween-80 90 % of control

COc1cc(/C=C(/C)[N+](=O)[O-])cc(Br)c1OC
inactive: [2] 117 % of control

O=C1CSC(=S)N1
inactive: dose: 50.0 mg/kg/injection, schedule: Q01DX009 (ip), vehicle: saline with Tween-80 122 % of control | [4] 122 % of control | dose: 200.0 mg/kg/injection, schedule: Q01DX009 (ip), vehicle: saline with Tween-80 104 % of control

CC(=O)OC1C(OCc2ccccc2)OC(COCc2ccccc2)C(OC2OC(COCc3ccccc3)C(OCc3ccccc3)C(OCc3ccccc3)C2OCc2ccccc2)C1OCc1ccccc1 (stereo not given)
inactive: dose: 5.31 mg/kg/injection, schedule: Q01DX009 (ip), vehicle: Klucel (hydroxypropylcellulose) (HPC) 100 % of control and 104 % of control | dose: 10.62 mg/kg/injection, schedule: Q01DX009 (ip), vehicle: Klucel (hydroxypropylcellulose) (HPC) 100 % of control | dose: 21.25 mg/kg/injection, schedule: Q01DX009 (ip), vehicle: Klucel (hydroxypropylcellulose) (HPC) 87 % of control and 100 % of control

FC(F)(F)c1ccc2c(c1)N(CCCN1CCN(CCOCCCl)CC1)c1ccccc1S2
inactive: [5] 107 % of control

Cn1ccoc1=NC1CCCCC1
inactive: dose: 50.0 mg/kg/injection, schedule: Q04DX003 (ip), vehicle: saline with Tween-80 100 % of control | [2] 100 % of control | [3] 109 % of control

CCN(CC)Cc1c(C)[nH]c2ccc(N(C)C)cc2c1=O
inactive: dose: 1.56 mg/kg/injection, schedule: Q01DX009 (ip), vehicle: water 86 % of control and 110 % of control | dose: 3.12 mg/kg/injection, schedule: Q01DX009 (ip), vehicle: water 89 % of control and 100 % of control | dose: 6.25 mg/kg/injection, schedule: Q01DX009 (ip), vehicle: water 89 % of control | [6] 99 % of control | dose: 12.5 mg/kg/injection, schedule: Q01DX009 (ip), vehicle: water 120 % of control | [7] 108 % of control | [8] 111 % of control | [9] 99 % of control | [10] 112 % of control | dose: 100.0 mg/kg/injection, schedule: Q04DX003 (ip), vehicle: saline 104 % of control | dose: 200.0 mg/kg/injection, schedule: Q01DX009 (ip), vehicle: Klucel (hydroxypropylcellulose) (HPC) 106 % of control

C=CCNc1ccc(C)cc1
inactive: [6] 110 % of control | [7] 116 % of control | [9] 116 % of control | [4] 122 % of control

NOCc1csc(N)n1
inactive: dose: 75.0 mg/kg/injection, schedule: Q04DX003 (ip), vehicle: saline 91 % of control | dose: 300.0 mg/kg/injection, schedule: Q04DX003 (ip), vehicle: saline 87 % of control

CC(C)C(Br)C(N)=O (stereo not given)
inactive: [5] 104 % of control | [8] 109 % of control | [10] 109 % of control

COC(=O)C1(C)CC2C(C)(CCC3(C)C4=CC=C5C(=CC(=O)C(O)=C5C)C4(C)CCC23C)CC1O (stereo not given)
inactive: dose: 25.0 mg/kg/injection, schedule: Q01DX001 (ip), vehicle: saline with Tween-80 109 % of control | dose: 50.0 mg/kg/injection, schedule: Q01DX001 (ip), vehicle: saline with Tween-80 91 % of control | [1] 104 % of control
